Test results as given in paper PMC10485887, “PET Evaluation of the Novel F-18 Labeled Reversible Radioligand [^18F]GEH200449 for Detection of Monoamine Oxidase-B in the Non-Human Primate Brain” (ACS Chemical Neuroscience, 2023).
Read-outs that look alike come from different tables or passages of the source.

Tested on: MAO-B
Type: in vivo, Macaca fascicularis
Details: baseline
Protocol: At start of PET data acquisition, a sterile physiological phosphate buffer solution (pH = 7.4) of [^18F]GEH200449 (injected radioactivity, 107–167 MBq) was injected as a bolus into a sural vein. Emission data were acquired in list mode for 123 min. Arterial blood was sampled as previously described[28] using an automated blood sampling system (ABSS) during the first 3 min of each PET measurement. Subsequently, arterial blood samples (0.7–2.5 mL) were manually drawn at 7, 15, 30, 60, 90, and 120 min after injection of [^18F]GEH200449. After centrifugation, 0.15–1.0 mL of plasma was pipetted and plasma radioactivity was measured in a well counter. In addition, samples were taken directly from the ABSS at 0.5, 1, 1.5, 2, 2.5, and 3 min for cross-calibration with the well counter and for the determination of the plasma-to-blood ratio.
Dynamic images were reconstructed as previously described.[30],[31] Regions of interest (ROIs) for the whole brain and selected regions (caudate nucleus, putamen, thalamus, occipital cortex, prefrontal cortex, and cerebellum) were manually delineated on T1-weighted magnetic resonance images (MRIs) acquired as previously described.[21],[27] PET images were coregistered to the MRIs, and time-activity curves were generated by pooling ROIs for each paired anatomical region and applying the pooled ROIs to the coregistered PET images. Delineation of ROIs and image coregistrations were performed using the software PMOD v. 3.6 (PMOD Technologies, Zurich, Switzerland).
Time curves for regional [^18F]GEH200449 binding at baseline were analyzed by kinetic modeling using 1-TC and 2-TC models,[32] and VT as outcome measures. Akaike information criterion[33] and F statistics were applied to select the preferred model. Regional estimates of VT for [^18F]GEH200449 were also obtained using the Logan linear graphical method[34] with t* fixed at 40 min. The analyses were performed using the kinetic modeling tool in PMOD v. 4.3. Occupancy at [^18F]GEH200449 binding sites was estimated based on regional VT values obtained by the Logan method at baseline and after drug administration according to a graphical procedure described in the literature.[22]

O=c1ccoc2ccc(OCc3ccc([18F])nc3)cc12 [[^18F]GEH200449]
2-TC parameter estimate K1 (NHP #1, CAU): 0.70 mL min-1 cm-3
2-TC parameter estimate VT (NHP #1, CAU): 14.6 mL cm-3
2-TC parameter estimate k2 (NHP #1, CAU): 0.09 min⁻¹
2-TC parameter estimate k3 (NHP #1, CAU): 0.034 min⁻¹
2-TC parameter estimate k4 (NHP #1, CAU): 0.037 min⁻¹
2-TC parameter estimate K1 (NHP #1, CER): 0.47 mL min-1 cm-3
2-TC parameter estimate VT (NHP #1, CER): 11.1 mL cm-3
2-TC parameter estimate k2 (NHP #1, CER): 0.07 min⁻¹
2-TC parameter estimate k3 (NHP #1, CER): 0.021 min⁻¹
2-TC parameter estimate k4 (NHP #1, CER): 0.038 min⁻¹
2-TC parameter estimate K1 (NHP #1, OC): 0.49 mL min-1 cm-3
2-TC parameter estimate VT (NHP #1, OC): 10.8 mL cm-3
2-TC parameter estimate k2 (NHP #1, OC): 0.07 min⁻¹
2-TC parameter estimate k3 (NHP #1, OC): 0.016 min⁻¹
2-TC parameter estimate k4 (NHP #1, OC): 0.024 min⁻¹
2-TC parameter estimate K1 (NHP #1, PFC): 0.57 mL min-1 cm-3
2-TC parameter estimate VT (NHP #1, PFC): 11.0 mL cm-3
2-TC parameter estimate k2 (NHP #1, PFC): 0.09 min⁻¹
2-TC parameter estimate k3 (NHP #1, PFC): 0.028 min⁻¹
2-TC parameter estimate k4 (NHP #1, PFC): 0.037 min⁻¹
2-TC parameter estimate K1 (NHP #1, PUT): 0.71 mL min-1 cm-3
2-TC parameter estimate VT (NHP #1, PUT): 14.1 mL cm-3
2-TC parameter estimate k2 (NHP #1, PUT): 0.09 min⁻¹
2-TC parameter estimate k3 (NHP #1, PUT): 0.025 min⁻¹
2-TC parameter estimate k4 (NHP #1, PUT): 0.029 min⁻¹
2-TC parameter estimate K1 (NHP #1, THA): 0.59 mL min-1 cm-3
2-TC parameter estimate VT (NHP #1, THA): 15.0 mL cm-3
2-TC parameter estimate k2 (NHP #1, THA): 0.06 min⁻¹
2-TC parameter estimate k3 (NHP #1, THA): 0.008 min⁻¹
2-TC parameter estimate k4 (NHP #1, THA): 0.016 min⁻¹
2-TC parameter estimate K1 (NHP #1, WB): 0.51 mL min-1 cm-3
2-TC parameter estimate VT (NHP #1, WB): 10.9 mL cm-3
2-TC parameter estimate k2 (NHP #1, WB): 0.09 min⁻¹
2-TC parameter estimate k3 (NHP #1, WB): 0.025 min⁻¹
2-TC parameter estimate k4 (NHP #1, WB): 0.031 min⁻¹
2-TC parameter estimate K1 (NHP #3, CAU): 0.65 mL min-1 cm-3
2-TC parameter estimate VT (NHP #3, CAU): 19.2 mL cm-3
2-TC parameter estimate k2 (NHP #3, CAU): 0.04 min⁻¹
2-TC parameter estimate k3 (NHP #3, CAU): 0.006 min⁻¹
2-TC parameter estimate k4 (NHP #3, CAU): 0.029 min⁻¹
2-TC parameter estimate K1 (NHP #3, CER): 0.44 mL min-1 cm-3
2-TC parameter estimate VT (NHP #3, CER): 13.9 mL cm-3
2-TC parameter estimate k2 (NHP #3, CER): 0.04 min⁻¹
2-TC parameter estimate k3 (NHP #3, CER): 0.005 min⁻¹
2-TC parameter estimate k4 (NHP #3, CER): 0.016 min⁻¹
2-TC parameter estimate K1 (NHP #3, OC): 0.38 mL min-1 cm-3
2-TC parameter estimate VT (NHP #3, OC): 11.2 mL cm-3
2-TC parameter estimate k2 (NHP #3, OC): 0.04 min⁻¹
2-TC parameter estimate k3 (NHP #3, OC): 0.003 min⁻¹
2-TC parameter estimate k4 (NHP #3, OC): 0.012 min⁻¹
2-TC parameter estimate K1 (NHP #3, PFC): 0.49 mL min-1 cm-3
2-TC parameter estimate VT (NHP #3, PFC): 13.5 mL cm-3
2-TC parameter estimate k2 (NHP #3, PFC): 0.05 min⁻¹
2-TC parameter estimate k3 (NHP #3, PFC): 0.006 min⁻¹
2-TC parameter estimate k4 (NHP #3, PFC): 0.017 min⁻¹
2-TC parameter estimate K1 (NHP #3, PUT): 0.70 mL min-1 cm-3
2-TC parameter estimate VT (NHP #3, PUT): 16.7 mL cm-3
2-TC parameter estimate k2 (NHP #3, PUT): 0.05 min⁻¹
2-TC parameter estimate k3 (NHP #3, PUT): 0.007 min⁻¹
2-TC parameter estimate k4 (NHP #3, PUT): 0.029 min⁻¹
2-TC parameter estimate K1 (NHP #3, THA): 0.58 mL min-1 cm-3
2-TC parameter estimate VT (NHP #3, THA): 18.5 mL cm-3
2-TC parameter estimate k2 (NHP #3, THA): 0.04 min⁻¹
2-TC parameter estimate k3 (NHP #3, THA): 0.007 min⁻¹
2-TC parameter estimate k4 (NHP #3, THA): 0.023 min⁻¹
2-TC parameter estimate K1 (NHP #3, WB): 0.48 mL min-1 cm-3
2-TC parameter estimate VT (NHP #3, WB): 12.6 mL cm-3
2-TC parameter estimate k2 (NHP #3, WB): 0.05 min⁻¹
2-TC parameter estimate k3 (NHP #3, WB): 0.010 min⁻¹
2-TC parameter estimate k4 (NHP #3, WB): 0.029 min⁻¹
2-TC parameter estimate K1 (NHP #4, CAU): 0.50 mL min-1 cm-3
2-TC parameter estimate VT (NHP #4, CAU): 19.9 mL cm-3
2-TC parameter estimate k2 (NHP #4, CAU): 0.05 min⁻¹
2-TC parameter estimate k3 (NHP #4, CAU): 1.087 min⁻¹
2-TC parameter estimate k4 (NHP #4, CAU): 1.229 min⁻¹
2-TC parameter estimate K1 (NHP #4, CER): 0.32 mL min-1 cm-3
